Results: US20110105492A1, “ARYL SUBSTITUTED ARYLINDENOPYRIMIDINES AND THEIR USE AS HIGHLY SELECTIVE ADENOSINE A2a RECEPTOR ANTAGONISTS” (priority 2009, published 2011)
pIC50: −log10 of the molar value.

Experiments:
[1] = target: T1, human adenosine A2A receptor (Homo sapiens, UniProt P29274); experiment: Adenosine A2A Receptor Functional Assay (A2AGAL2); format: cell-based; settings: for pIC50: CHO-K1 cells overexpressing human A2A, cAMP inducible beta-galactosidase reporter, antagonist vs 15 nM NECA challenge; for A1/A2A: ratio of A1Gal2 to A2AGal2 value
T1 construct: expressed in transfected cells; host or cells: CHO-K1 cells with a cAMP inducible beta-galactosidase reporter gene
Procedure: Adenosine A2A Receptor Functional Assay (A2AGAL2)
To initiate the functional assay, cryopreserved CHO-K1 cells overexpressing the human adenosine A2A receptor and containing a cAMP inducible beta-galactosidase reporter gene were thawed, centrifuged, DMSO containing media removed, and then seeded with fresh culture media into clear 384-well tissue culture treated plates (BD #353961) at a concentration of 10K cells/well. Prior to assay, these plates were cultured for two days at 37° C., 5% CO2, 90% Rh. On the day of the functional assay, culture media was removed and replaced with 45 μL assay medium (Hams/F-12 Modified (Mediatech # 10-080CV) supplemented w/0.1% BSA). Test compounds were diluted and 11 point curves created at a 1000× concentration in 100% DMSO. Immediately after addition of assay media to the cell plates, 50 nL of the appropriate test compound antagonist or agonist control curves were added to cell plates using a Cartesian Hummingbird. Compound curves were allowed to incubate at room temperature on cell plates for approximately 15 minutes before addition of a 15 nM NECA (Sigma E2387) agonist challenge (5 μL volume). A control curve of NECA, a DMSO/Media control, and a single dose of Forskolin (Sigma F3917) were also included on each plate. After additions, cell plates were allowed to incubate at 37° C., 5% CO2, 90% Rh for 5.5-6 hours. After incubation, media were removed, and cell plates were washed 1×50 μL with DPBS w/o Ca & Mg (Mediatech 21-031-CV). Into dry wells, 20 μL of 1× Reporter Lysis Buffer (Promega E3971 (diluted in dH2O from 5× stock)) was added to each well and plates frozen at −20° C. overnight. For β-galactosidase enzyme colorimetric assay, plates were thawed out at room temperature and 20 μL 2× assay buffer (Promega) was added to each well. Color was allowed to develop at 37° C., 5% CO2, 90% Rh for 1-1.5 hours or until reasonable signal appeared. The colorimetric reaction was stopped with the addition of 60 μL/well 1M sodium carbonate. Plates were counted at 405 nm on a SpectraMax Microplate Reader (Molecular Devices). Data was analyzed in Microsoft Excel and IC/EC50 curves were fit using a standardized macro.

[2] = target: T2, human adenosine A1 receptor (Homo sapiens, UniProt P30542); experiment: Adenosine A1 Receptor Functional Assay (A1GAL2); format: cell-based; settings: CHO-K1 cells overexpressing human A1, cAMP inducible beta-galactosidase reporter, antagonist vs 4 nM r-PIA/1 uM Forskolin challenge
T2 construct: expressed in transfected cells; host or cells: CHO-K1 cells with a cAMP inducible beta-galactosidase reporter gene
T2 sequence (P30542 1-326): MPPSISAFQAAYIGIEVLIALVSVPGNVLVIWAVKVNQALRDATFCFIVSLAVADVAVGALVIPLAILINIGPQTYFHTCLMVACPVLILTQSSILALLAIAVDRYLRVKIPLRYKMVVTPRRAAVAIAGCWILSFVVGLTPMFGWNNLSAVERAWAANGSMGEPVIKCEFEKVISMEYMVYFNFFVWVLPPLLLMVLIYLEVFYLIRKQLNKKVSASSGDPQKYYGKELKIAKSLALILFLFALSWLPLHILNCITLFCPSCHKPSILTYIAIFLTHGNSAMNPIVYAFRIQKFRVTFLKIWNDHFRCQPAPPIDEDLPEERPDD
Procedure: Adenosine A1 Receptor Functional Assay (A1GAL2)
To initiate the functional assay, cryopreserved CHO-K1 cells overexpressing the human adenosine A1 receptor and containing a cAMP inducible beta-galactosidase reporter gene were thawed, centrifuged, DMSO containing media removed, and then seeded with fresh culture media into clear 384-well tissue culture treated plates (BD #353961) at a concentration of 10K cells/well. Prior to assay, these plates were cultured for two days at 37° C., 5% CO2, 90% Rh. On the day of the functional assay, culture media was removed and replaced with 45 μL assay medium (Hams/F-12 Modified (Mediatech # 10-080CV) supplemented w/0.1% BSA). Test compounds were diluted and 11 point curves created at a 1000× concentration in 100% DMSO. Immediately after addition of assay media to the cell plates, 50 nL of the appropriate test compound antagonist or agonist control curves were added to cell plates using a Cartesian Hummingbird. Compound curves were allowed to incubate at room temperature on cell plates for approximately 15 minutes before addition of a 4 nM r-PIA (Sigma P4532)/1 uM Forskolin (Sigma F3917) agonist challenge (5 μL volume). A control curve of r-PIA in 1 uM Forskolin, a DMSO/Media control, and a single dose of Forskolin were also included on each plate. After additions, cell plates were allowed to incubate at 37° C., 5% CO2, 90% Rh for 5.5-6 hours. After incubation, media was removed, and cell plates were washed 1×50 μL with DPBS w/o Ca & Mg (Mediatech 21-031-CV). Into dry wells, 20 μL of 1× Reporter Lysis Buffer (Promega E3971 (diluted in dH2O from 5× stock)) was added to each well and plates frozen at −20° C. overnight. For β-galactosidase enzyme colorimetric assay, plates were thawed out at room temperature and 20 μL 2× assay buffer (Promega) was added to each well. Color was allowed to develop at 37° C., 5% CO2, 90% Rh for 1-1.5 hours or until reasonable signal appeared. The colorimetric reaction was stopped with the addition of 60 μL/well 1M sodium carbonate. Plates were counted at 405 nm on a SpectraMax Microplate Reader (Molecular Devices). Data was analyzed in Microsoft Excel and IC/EC50 curves were fit using a standardized macro.

T1 sequence (P29274 whole entry): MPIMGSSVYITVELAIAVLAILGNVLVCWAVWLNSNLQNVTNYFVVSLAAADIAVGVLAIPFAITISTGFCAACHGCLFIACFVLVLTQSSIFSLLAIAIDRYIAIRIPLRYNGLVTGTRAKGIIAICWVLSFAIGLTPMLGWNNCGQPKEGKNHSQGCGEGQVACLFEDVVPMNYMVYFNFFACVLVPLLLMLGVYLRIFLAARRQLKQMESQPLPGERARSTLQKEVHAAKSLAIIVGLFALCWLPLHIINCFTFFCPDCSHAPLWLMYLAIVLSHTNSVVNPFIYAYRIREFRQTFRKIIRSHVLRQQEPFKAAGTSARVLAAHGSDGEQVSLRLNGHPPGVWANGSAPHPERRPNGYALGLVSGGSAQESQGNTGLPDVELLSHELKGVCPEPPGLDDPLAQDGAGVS

Row | Compound | pIC50 [1] | A1/A2A [1] | pIC50 [2]
1 | CCN1CCN(c2ccc(-c3cccc4c3-c3nc(N)nc(-c5ccc(F)cc5)c3C4=O)cc2)CC1 [Example 12, 2-Amino-9-[4-(4-ethyl-piperazin-1-yl)-phenyl]-4-(4-fluoro-phenyl)-indeno[1,2-d]pyrimidin-5-one] | 8.00 | 76 | 6.12
2 | Cc1cccc(-c2cccc3c2-c2nc(N)nc(-c4ccc(F)cc4)c2C3=O)c1 [Example 16, 2-Amino-4-(4-fluoro-phenyl)-9-m-tolyl-indeno[1,2-d]pyrimidin-5-one] | 7.51 | 58.0645 | 5.74
3 | COc1ccc(-c2cccc3c2-c2nc(N)nc(-c4ccccc4)c2C3=O)cc1 [Example 17, 2-Amino-9-(4-methoxy-phenyl)-4-phenyl-indeno[1,2-d]pyrimidin-5-one] | 8.20 | 52.381 | 6.48
4 | CCC(C)N1CCN(c2ccc(-c3cccc4c3-c3nc(N)nc(-c5ccc(F)cc5)c3C4=O)cc2)CC1 (stereo not drawn) [Example 6, 2-Amino-9-[4-(4-sec-butyl-piperazin-1-yl)-phenyl]-4-(4-fluoro-phenyl)-indeno[1,2-d]pyrimidin-5-one] | 8.01 | 142.857 | 5.85
5 | N#Cc1ccc(-c2cccc3c2-c2nc(N)nc(-c4ccc(F)cc4)c2C3=O)cc1 [Example 10, 4-[2-Amino-4-(4-fluoro-phenyl)-5-oxo-5H-indeno[1,2-d]pyrimidin-9-yl]-benzonitrile] | 8.59 | 103.846 | 6.57
6 | Nc1nc(-c2ccc(F)cc2)c2c(n1)-c1c(cccc1-c1ccc(N3CCN(CCC(F)(F)F)CC3)cc1)C2=O [Example 1, 2-Amino-4-(4-fluoro-phenyl)-9-{4-[4-(3,3,3-trifluoro-propyl)-piperazin-1-yl]-phenyl}-indeno[1,2-d]pyrimidin-5-one] | 8.74 | 3055.56 | 5.26
7 | CC(C)CCN1CCN(c2ccc(-c3cccc4c3-c3nc(N)nc(-c5ccc(F)cc5)c3C4=O)cc2)CC1 [Example 11, 2-Amino-4-(4-fluoro-phenyl)-9-{4-[4-(3-methyl-butyl)-piperazin-1-yl]-phenyl}-indeno[1,2-d]pyrimidin-5-one] | 7.96 | 100 | 5.96
8 | Nc1nc(-c2ccccc2)c2c(n1)-c1c(cccc1-c1ccccc1)C2=O [Example 14, 2-Amino-4,9-diphenyl-indeno[1,2-d]pyrimidin-5-one] | 8.07 | 66.2791 | 6.24
9 | CCCN1CCN(c2ccc(-c3cccc4c3-c3nc(N)nc(-c5ccc(F)cc5)c3C4=O)cc2)CC1 [Example 15, 2-Amino-4-(4-fluoro-phenyl)-9-[4-(4-propyl-piperazin-1-yl)-phenyl]-indeno[1,2-d]pyrimidin-5-one] | 8.06 | 59.7701 | 6.28
10 | Nc1nc(-c2ccc(F)cc2)c2c(n1)-c1c(cccc1-c1ccc(N3CCN(CC4CC4)CC3)cc1)C2=O [Example 7, 2-Amino-9-[4-(4-cyclopropylmethyl-piperazin-1-yl)-phenyl]-4-(4-fluoro-phenyl)-indeno[1,2-d]pyrimidin-5-one] | 8.08 | 131.69 | 5.96
11 | COCCN1CCN(c2ccc(-c3cccc4c3-c3nc(N)nc(-c5ccc(F)cc5)c3C4=O)cc2)CC1 [Example 8, 2-Amino-4-(4-fluoro-phenyl)-9-{4-[4-(2-methoxy-ethyl)-piperazin-1-yl]-phenyl}-indeno[1,2-d]pyrimidin-5-one] | 8.74 | 127.778 | 6.64
12 | CC(C)CN1CCN(c2ccc(-c3cccc4c3-c3nc(N)nc(-c5ccc(F)cc5)c3C4=O)cc2)CC1 [Example 2, 2-Amino-4-(4-fluoro-phenyl)-9-[4-(4-isobutyl-piperazin-1-yl)-phenyl]-indeno[1,2-d]pyrimidin-5-one] | 8.15 | 591.549 | 5.38
13 | Nc1nc(-c2ccc(F)cc2)c2c(n1)-c1c(cccc1-c1ccc(OCCN3CCOCC3)cc1)C2=O [Example 13, 2-Amino-4-(4-fluoro-phenyl)-9-[4-(2-morpholin-4-yl-ethoxy)-phenyl]-indeno[1,2-d]pyrimidin-5-one] | 8.41 | 69.2308 | 6.57
14 | CC(C)N1CCN(c2ccc(-c3cccc4c3-c3nc(N)nc(-c5ccc(F)cc5)c3C4=O)cc2)CC1 [Example 9, 2-Amino-4-(4-fluoro-phenyl)-9-[4-(4-isopropyl-piperazin-1-yl)-phenyl]-indeno[1,2-d]pyrimidin-5-one] | 7.80 | 112.5 | 5.74
15 | CCC(CC)N1CCN(c2ccc(-c3cccc4c3-c3nc(N)nc(-c5ccc(F)cc5)c3C4=O)cc2)CC1 [Example 5, 2-Amino-9-{4-[4-(1-ethyl-propyl)-piperazin-1-yl]-phenyl}-4-(4-fluoro-phenyl)-indeno[1,2-d]pyrimidin-5-one] | 7.64 | 182.609 | 5.38
16 | Nc1nc(-c2ccc(F)cc2)c2c(n1)-c1c(cccc1-c1cccc(F)c1)C2=O [Example 3, 2-Amino-4-(4-fluoro-phenyl)-9-(3-fluoro-phenyl)-indeno[1,2-d]pyrimidin-5-one] | 7.59 | 342.308 | 5.05
17 | Nc1nc(-c2ccc(F)cc2)c2c(n1)-c1c(cccc1-c1ccc(N3CCN(Cc4ccccc4)CC3)cc1)C2=O [Example 4, 2-Amino-9-[4-(4-benzyl-piperazin-1-yl)-phenyl]-4-(4-fluoro-phenyl)-indeno[1,2-d]pyrimidin-5-one] | 8.00 | 310 | 5.51
